Data set [1] can be described thus: Stability in mouse liver microsomes. It counts as in vitro ADME. The gist of the method:
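Mouse liver microsomes, run by the same procedure as for human microsomes: 100 μM working solution pre-incubated with microsomes in 100 mM potassium phosphate buffer for 10 min at 37° C, then incubated 60 min at 37° C with NADPH cofactor, plus a no-cofactor control. Remaining compound quantified by LC-MS/MS.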
A general note: Liver microsomes are vesicles of endoplasmic reticulum, rich in cytochrome P450 enzymes.

For the next data set, the system named is SREBP. The data set is described as follows: Reporter Screening Assay (SRE-luciferase reporter, HepG2). The note with it: Homo sapiens; SRE-luciferase reporter HepG2 cells, 24 hours, 0.01 uM to 10 uM; read-out: I: Reporter Screening Assay (Ave EC50 (nM)). The data set is classed as cell-based. The gist of the method:
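HepG2 SREBP reporter cells carrying an SRE-luciferase construct were serum-washed, then treated for 24 h at 37° C with compounds (0.01 uM to 10 uM) in phenol-free medium with varying FBS levels. Total luminescence was read after a 30 min incubation with luciferase substrate.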
(In general: Reporter assays use an easily measured gene product as a stand-in for the process of interest.)

The test system of a further data set is MHHES1. The data set can be described thus: Cancer cell growth inhibition. The data set is classed as cell-based. The settings on record: Homo sapiens, MHH-ES-1; MHHES1 (bone), 72 hr treatment. In short, it runs like this: (§1)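 Steps: serially dilute compound 10-fold in DMSO across six stock levels (10 mM down to 0.1 uM); treat cells in growth media at 0.1% final DMSO for 72 hr; stain protein with sulforhodamine B; compute growth parameters from one data point per concentration.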

The next data set deals with NCIH292. The data set is described as follows: Cancer cell growth inhibition. The data set is classed as cell-based. The settings on record: Homo sapiens, NCI-H292; NCIH292 (lung), 72 hr treatment. The gist of the method: as §1
The next data set relates to MDAMB435. The data set can be described thus: Cancer cell growth inhibition. It counts as cell-based. The note with it: Homo sapiens, MDA-MB-435; MDAMB435 (skin), 72 hr treatment. In short, it runs like this: as §1
A further data set relates to CLS439. The data set can be described thus: Cancer cell growth inhibition. The note with it: CLS439 (bladder), 72 hr treatment. The data set is classed as cell-based. The gist of the method: as §1
A further data set has as its system HL-60. The data set can be described thus: Cancer cell growth inhibition. The data set is classed as cell-based. The note with it: Homo sapiens; HL-60 (hematological), 72 hr treatment. In short, it runs like this: as §1
A further data set concerns DLD1. The data set is described as follows: Cancer cell growth inhibition. The data set is classed as cell-based. The settings on record: Homo sapiens, DLD-1; DLD1 (colon), 72 hr treatment. The gist of the method: as §1
The next data set deals with U2OS. The data set is described as follows: Cancer cell growth inhibition. The settings on record: Homo sapiens; U2OS (bone), 72 hr treatment. The data set is classed as cell-based. The gist of the method:
as §1

`CC(C)(CO)c1cc(-c2csc(-c3ccc(NS(C)(=O)=O)cc3Cl)c2)ccn1` [Compound I-8909, N-(3-chloro-4-(4-(2-(1-hydroxy-2-methylpropan-2-yl)pyridin-4-yl)thiophen-2-yl)phenyl)methanesulfonamide]: the “percent parent remaining after 60 min in liver microsomes” value (“percent parent remaining after 60 min” below) in [1] was “+++ (>60.1 = +++)”. Moreover, in the data set with SREBP, the half-maximal effective concentration (EC50) (in general, the concentration that produces a half-maximal response) was less than 249 nM. Besides, the IC50 (in general, the point on the concentration scale where inhibition reaches its midpoint) is less than 10 µM with MHHES1; less than 10 µM in the data set with NCIH292; greater than 10 µM in the data set on MDAMB435; greater than 10 µM in the data set with CLS439; less than 10 µM in the data set with HL-60; less than 10 µM in the data set on DLD1. In the data set with U2OS, this compound had an IC50 greater than 10 µM.
For the compound `CC(C)(O)Cc1cc(-c2csc(-c3ccc(NS(C)(=O)=O)cc3Cl)c2)ccn1` [Compound I-9004, N-(3-chloro-4-(4-(2-(2-hydroxy-2-methylpropyl)pyridin-4-yl)thiophen-2-yl)phenyl)methanesulfonamide], the “percent parent remaining after 60 min” value in [1] was “+++ (>60.1 = +++)”. The EC50 with SREBP was less than 249 nM. The IC50 is less than 10 µM in the data set with MHHES1; less than 10 µM in the data set on NCIH292; less than 10 µM with MDAMB435; greater than 10 µM in the data set with CLS439; less than 10 µM in the data set with HL-60; less than 10 µM in the data set with DLD1. In the data set on U2OS, this compound registered an IC50 greater than 10 µM.
Turning to `CS(=O)(=O)Nc1ccc(-c2cc(-c3ccnc4c3OCCO4)cs2)c(Cl)c1` [Compound I-9017, N-(3-chloro-4-(4-(2,3-dihydro-[1,4]dioxino[2,3-b]pyridin-8-yl)thiophen-2-yl)phenyl)methanesulfonamide], in data set [1], the “percent parent remaining after 60 min” value is reported as “+++ (>60.1 = +++)”. Moreover, the EC50 with SREBP is less than 249 nM. The IC50 in the data set with MHHES1 was less than 10 µM; in the data set with NCIH292, less than 10 µM; in the data set with MDAMB435, greater than 10 µM; in the data set on CLS439 it was less than 10 µM; with HL-60, less than 10 µM; with DLD1, less than 10 µM. This compound yielded an IC50 with U2OS of less than 10 µM.

For the origin of these results see patent US20220056018A1, “SREBP INHIBITORS COMPRISING A THIOPHENE CENTRAL RING” (Capulus Therapeutics, LLC, priority 2019, published 2022).
